Measurements reported in US5912266A, “Beta2 integrin cell adhesion molecule inhibitors” (American Home Products Corporation, priority 1997, dated 1999).
Values joined by “and” are separate entries in the source; they are usually repeats but may differ in a detail not shown here. Identical values can stand only once.

Tests used:
LFA-1 = experiment: β2 integrin/ICAM-1 homotypic (cell:cell) binding of 8866 cells; format: cell-based, human
Source text: The following experiment describes the inhibition of homotypic (cell:cell) binding of β2 and ICAM-1 expressing cells by asperlin. 8866 cells, a human B-cell line, were supplied by Athena Neurosciences (San Francisco, Calif.). These cells constitutively express both the β2 integrin referred to as LFA-1, and ICAM-1 on the cell surface. In culture, 8866 cells spontaneously bind, or clump together, as a result of β2 integrin binding to ICAM-1.
8866 cells were maintained in RPMI 1640 culture media (refer to Example I) supplemented with […] HEPES buffer (Gibco No. 15630-080). Cells were subcultured when the cell density was approximately 1×10^6 cells/ml. […]
8866 cells were harvested by centrifuging 5 minutes, at 1000 rpm, room temperature, in a Sorvall RT6000 centrifuge. The cell pellet was resuspended in culture media and cells were counted using a hemacytometer. […]
Asperlin was solubilized in 100% DMSO at a concentration of 20 mg/ml, 10 mg/ml, 5 mg/ml, and 2.5 mg/ml. […] The progression of homotypic binding was monitored by microscopic observations after 1 and 2 hours of incubation.
Inhibition β2 integrin dependent homotypic binding to ICAM-1 by asperlin was photographically recorded using a Nikon 35 mm camera attached to a Nikon Diaphot 300 inverted microscope (filter setting NCBII, objective 10×, and light setting of photo).

[1] = MTT cytotoxicity assay, HL60 cells; format: cell-based; conditions: human, hl60 cells, HL60, 30 min., read-out: % Inhibition MTT Reduction
Source text: (§1) This experiment describes the affect of asperlin on cellular respiration (mitochondrial activity) by measuring the reduction of the tetrazolium salt MTT to formazan crystals (Moseman, et al). This assay served as a control to ensure that the decrease in the fluorescence observed in Example I, Table I, was not the result of the fluorescent dye leaking from the cells due to disruption of the cell membrane. To address this issue, the mitochondrial activity of β2 and β1 integrin expressing cells in the presence of asperlin was quantitated using a commercially available MTT cytotoxicity kit (Promega No. G4100).
(§2) HL60 and U937 cells were purchased from the American Type Culture Collection (ATCC) and maintained in RPMI 1640 culture media containing 10% heat inactivated fetal bovine serum (refer to Example I, materials). HL60 cells were used between passages 20 and 30. HL60 cells were stimulated by a four day exposure to DMSO, as described in Example I, materials. Falcon round bottom tissue culture plates (No. 3077) were used for the experiment. All remaining reagents were supplied in Promega's MTT cytotoxicity kit (Catalog No. G4100).
(§3) The assay procedure described in the Promega MTT kit was used with the following changes.
(§4) Asperlin was solubilized in 100% DMSO at a concentration of 50 mg/ml. The 50 mg/ml asperlin stock was diluted to 400 μg/ml with culture media containing 5% fetal bovine serum (FBS). This solution was further diluted to 80 and 20 μg/ml with culture media supplemented with 5% FBS plus 2% DMSO. 50 μl of the 20 and 80 μg/ml asperlin solutions were added to wells of a sterile, round bottom 96 well assay plate. Control wells received 50 μl of culture media containing 5% FBS plus 2% DMSO. Duplicate assay wells were prepared such that U937 and HL60 cells could be evaluated on the same plate. The cell density of β1 integrin expressing U937, and β2 integrin expressing HL60 cell cultures were determined using a hemacytometer.
(§5) Cells were harvested by centrifuging for 5 minutes at 1000 rpm, room temperature, in a Sorvall RT600 bench-top centrifuge. The HL60 cell pellet was resuspended in fresh culture media at a concentration of 5×10^6 cells/ml. The U937 cell pellet was resuspended in fresh culture media at a concentration of 2.5×10^6 cells/ml. 2.5×10^5 β2 integrin expressing HL60 cells, contained in 50 μl, were added to wells of the assay plate using a multichannel pipettor. In duplicate assay wells, 1.25×10^5 β1 integrin expressing U937 cells, contained in 50 μl, were added to wells of the assay plate using a multichannel pipettor. Assay plates were incubated for either 30 minutes, 60 minutes, or 4 hours in a 37° C. 5% CO2, humidified incubator.
(§6) At the appropriate time point, 15 μl of MTT reagent, supplied in the Promega assay kit, was added to each well using a multichannel pipettor. Assay plates were incubated in the 37° C. incubator, as just described, for two hours. The MTT reduction reaction was quenched, and the visible formazan crystals were solubilized by adding exactly 100 μl of Promega's solubilization buffer to each well. […] The optical density (OD) of each well of the assay plate was determined using a microtiter plate reader (Flow Labs) set at a wavelength of 580 nm with a correction wavelength of 630 nm.
(§7) Replicate sample ODs were average. The percentage of inhibition of cellular respiration (mitochondrial activity) by asperlin was quantitated by the following equation: […]

HL60 cells = experiment: MTT cytotoxicity assay, HL60 cells; format: cell-based; conditions: for Average Optical Density: HL60, 30 min.
Source text: as §1, §2, §3, §4, §5, §6, §7

[2] = MTT cytotoxicity assay, U937 cells; format: cell-based, human; conditions: human, u937 cells, U937, 30 min., read-out: % Inhibition MTT Reduction
Source text: as §1, §2, §3, §4, §5
(§8) At the appropriate time point, 15 μl of MTT reagent, supplied in the Promega assay kit, was added to each well using a multichannel pipettor. Assay plates were incubated in the 37° C. incubator, as just described, for two hours. The MTT reduction reaction was quenched, and the visible formazan crystals were solubilized by adding exactly 100 μl of Promega's solubilization buffer to each well. Assay plates were incubated for at least 18 hours in the same 37° C. incubator just described to solubilize the formazan reagent. Assay plates were removed from the incubator and allowed to cool to room temperature. The optical density (OD) of each well of the assay plate was determined using a microtiter plate reader (Flow Labs) set at a wavelength of 580 nm with a correction wavelength of 630 nm.
(§9) Replicate sample ODs were average. The percentage of inhibition of cellular respiration (mitochondrial activity) by asperlin was quantitated by the following equation:
(§10) % Inhibition=(1-(Sample OD.div.Average Control OD))×100

U937 cells = experiment: MTT cytotoxicity assay, U937 cells; format: cell-based, human; conditions: for Average Optical Density / Optical Density: U937, 30 min.; for Optical Density: single well, 580 nm
Source text: as §1, §2, §3, §4, §5, §8, §9, §10

In the case of `CC(=O)OC1C=CC(=O)OC1C1OC1C` [Asperlin, 6,7-Anhydro-2,3,8-trideoxy-D-galacto-oct-2-enoic acidδ-lactone 4-acetate], the “Inhibition of 8866 cell homotypic binding, visual inspection (in words)” value (LFA-1; after 1 hour of incubation) is reported as “inhibit cell--cell binding in a dose dependent manner”, the “Inhibition of 8866 cell homotypic binding, visual inspection (in words)” value (LFA-1; after 2 hours of incubation) is reported as “inhibited 8866, β2 integrin mediated homotypic binding to ICAM-1 in a dose dependent manner” and the cytotoxicity at 0.5 h ([1]; Asperlin 10 μg/mL) is reported as 8%. The cytotoxicity at 0.5 h ([1]; Asperlin 40 μg/mL) was 27%, the “Average Optical Density” value (HL60 cells; Asperlin 10 μg/mL) was “.819” and the “Average Optical Density” value (HL60 cells; Asperlin 40 μg/mL) was “.649”. The “Cytotoxicity (in words)” value (HL60 cells; β2 integrin expressing HL60 cells) was “not cytotoxic”, the cytotoxicity at 0.5 h ([2]; Asperlin 10 μg/mL) was 0% and the cytotoxicity at 0.5 h ([2]; Asperlin 40 μg/mL) was 11%. For the same compound, the “Average Optical Density” value (U937 cells; Asperlin 10 μg/mL) was 1.532, the “Optical Density” value (U937 cells; Asperlin 10 μg/mL) was 1.410 and 1.601 and 1.584 and the “Average Optical Density” value (U937 cells; Asperlin 40 μg/mL) was 1.386. The “Optical Density” value (U937 cells; Asperlin 40 μg/mL) was 1.362 and 1.352 and 1.391 and the “Cytotoxicity (in words)” value (U937 cells; β1 integrin expressing U937 cells) was “not cytotoxic”.
